Source: PMC12083526, “Capturing structural intermediates in an animal-like cryptochrome photoreceptor by time-resolved crystallography” (Science Advances, 2025)

Experiments:
[1] = target: T1, CraCRYΔCTE (CraCRY; animal-like cryptochrome, aCRY) (Chlamydomonas reinhardtii, UniProt A8J8W0); test: serial femtosecond crystallography (room temperature); conditions: crystals reduced with 50 mM DTT and white light, anaerobic; FAD-binding site
T1 construct: gene CHLRE_06g278251v5; C-terminal extension E496-E595 replaced by a His tag; pET28a-based; E. coli BL21(DE3); PHR domain plus helix α22
T1 sequence (A8J8W0 entry or part of it, stated change not applied): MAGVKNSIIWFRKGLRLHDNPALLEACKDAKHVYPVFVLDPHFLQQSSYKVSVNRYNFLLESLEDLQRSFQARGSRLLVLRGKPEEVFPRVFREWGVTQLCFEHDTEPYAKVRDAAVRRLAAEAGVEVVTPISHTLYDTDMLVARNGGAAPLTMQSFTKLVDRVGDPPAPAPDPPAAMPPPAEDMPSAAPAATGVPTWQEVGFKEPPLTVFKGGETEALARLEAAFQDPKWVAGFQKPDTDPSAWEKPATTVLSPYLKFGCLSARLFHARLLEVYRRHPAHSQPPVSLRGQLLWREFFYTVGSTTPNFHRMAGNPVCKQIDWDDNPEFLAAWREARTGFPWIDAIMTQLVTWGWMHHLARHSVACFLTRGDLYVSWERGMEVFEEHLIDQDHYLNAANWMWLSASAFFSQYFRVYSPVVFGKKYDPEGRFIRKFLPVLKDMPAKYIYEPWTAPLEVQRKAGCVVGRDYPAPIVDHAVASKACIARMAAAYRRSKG

[2] = target: T2, CraCRYΔCTE (CraCRY; animal-like cryptochrome, aCRY) (Chlamydomonas reinhardtii, UniProt A8J8W0, E384Q); test: steady-state photoreduction, UV/Vis absorption; format: binding; conditions: white light on ice, aerobic, no external reductant; 20 mM phosphate, 500 mM NaCl, 10% glycerol, pH 5.5-8.5
T2 construct: gene CHLRE_06g278251v5; C-terminal extension E496-E595 replaced by a His tag; pET28a-based; E. coli BL21(DE3); PHR domain plus helix α22
T2 sequence (A8J8W0 entry or part of it E384Q): as the sequence (A8J8W0 entry or part of it, stated change not applied) above, with E384Q counted along it

Row | SMILES | serial femtosecond crystallography (room temperature) [1] | steady-state photoreduction, UV/Vis absorption [2]
1 | Cc1cc2c(cc1C)N(C[C@H](O)[C@H](O)[C@H](O)COP(=O)(O)OP(=O)(O)OC[C@H]1O[C@@H](n3cnc4c(N)ncnc43)[C@H](O)[C@@H]1O)c1[nH]c(=O)[nH]c(=O)c1N2 [FADH^−] | CraCRY structures in FADox and FADH^− states at room temperature are almost identical | –
2 | Cc1cc2nc3c(=O)[nH]c(=O)nc-3n(C[C@H](O)[C@H](O)[C@H](O)COP(=O)(O)OP(=O)(O)OC[C@H]3O[C@@H](n4cnc5c(N)ncnc54)[C@H](O)[C@@H]3O)c2cc1C [FADox, flavin adenine dinucleotide] | – | E384Q is inefficient to generate the neutral radical FADH^• at physiological pH
